Patent US20200147037A1, “NEW TREATMENT OF BRAIN CANCER” (priority 2017, published 2020)

What was measured:
[1] = tested on: A549 highly metastatic human lung tumor; details: Paclitaxel 25 μM
[2] = tested on: glioblastoma; details: intracranial pump; WANG et al. 2018; cited from earlier work

For `CC(=O)O[C@H]1C(=O)[C@@]2(C)[C@H]([C@H](OC(=O)c3ccccc3)[C@]3(O)C[C@H](OC(=O)[C@H](O)[C@@H](NC(=O)c4ccccc4)c4ccccc4)C(C)=C1C3(C)C)[C@]1(OC(C)=O)CO[C@@H]1C[C@@H]2O` [Paclitaxel, paclitaxel], the “% of embryo death” value [1] was 24%, N = 21, the “Tumor weight” value [1] was 20.558 ± 1.902 mg and the “reduction of brain metastases amount compared to controls” value [1] was 61%.

For `CC(C)C[C@H](NC(=O)[C@H](Cc1ccccc1)NC(=O)c1cnccn1)B(O)O` [Bortezomib], the increase in survival [2] is given as 40%.
